Patent US7465857B1, “Glyphosate tolerant perennial ryegrass” (priority 2004, dated 2008)
Where two headings read alike, the source gives them in different places.

Experiments:
BAR Lp 2703 = assay type: in vivo, Lolium perenne; conditions: 40 days after first application, scale 1-9, 9=perfect turf
Description: (§1) This example provides methods and results of field trials in which the glyphosate tolerance characteristics of BAR Lp 2703 were examined and compared with Peak perennial ryegrass in Florence, S.C.
(§2) Peak and LP2703 perennial ryegrasses were overseeded at 350 lb/acre on dormant Bermuda grass base on Oct. 7, 2003. Turf quality was rated 7 times between Nov. 10, 2003 and Mar. 2, 2004. Turf quality fluctuated between 6.0 and 7.5 with changes in weather and fertilization (rated on a scale of 1-9 with 1=bare soil and 9=perfect turf).
(§3) Experimental treatments were 0, 3, 5, 6, 8, 10, and 16 ounces Roundup PROS per acre. One application of each treatment was applied on Mar. 12, 2004 to plots 3 feet wide by 6 feet long. The 3 and 6 oz/acre treatments were applied a second time on Mar. 28, 2004. There were two replications of each treatment applied to each cultivar. Applications were made in 2 gallons of water per 1000 square feet with a CO2-charged backpack sprayer.
(§4) Turf damage was rated on a scale of 0-9 with 0=no damage and 9=complete damage 7, 14, and 21 days after the first spray. Damage was not evident prior to 7 days.
(§5) The ratings shown in Table 10 were obtained 40 days after the first application of glyphosate (24 days after 2nd application).

Peak = assay: Field trial Florence, S.C.: glyphosate tolerance, turf damage and turf quality; assay type: in vivo, perennial ryegrass; conditions: 40 days after first application, scale 1-9, 9=perfect turf
Description: as §1, §2, §3, §4, §5

EK-2703 (BAR Lp 2703) = assay type: in vivo, Lolium perenne; conditions: Average June/July 1998, 9=completely green
Procedure: The mean turf color rating for the BAR LP 2703 variety in this perennial ryegrass turf trial that was seeded in the spring of 1998 (at 16 kg/ha) in Wolfheze was 7.6 in June/July 1998 (9=completely green).

`O=C(O)CNCP(=O)(O)O` [Glyphosate, N-(phosphonomethyl) glycine] gave a Turf quality ratings (BAR Lp 2703; 3 oz/acre twice) of 6.4, a Turf quality ratings (BAR Lp 2703; 5 oz/acre) of 7.3 and a Turf quality ratings (BAR Lp 2703; 6 oz/acre twice) of 5.8. The Turf quality ratings (BAR Lp 2703; 8 oz/acre) was 7.8, the Turf quality ratings (BAR Lp 2703; 10 oz/acre) was 8.0 and the Turf quality ratings (BAR Lp 2703; 16 oz/acre) was 6.5. For the same compound, the Turf quality ratings (Peak; 3 oz/acre twice) was 5.4, the Turf quality ratings (Peak; 5 oz/acre) was 6.8 and the Turf quality ratings (Peak; 6 oz/acre twice) was 2.5. For the same compound, the Turf quality ratings (Peak; 8 oz/acre) was 7.7, the Turf quality ratings (Peak; 10 oz/acre) was 7.0 and the Turf quality ratings (Peak; 16 oz/acre) was 5.9. For the same compound, the “Turf Color After Spraying” value (EK-2703 (BAR Lp 2703)) was 7.6.
